Test results from paper PMC6099740, “Design, Synthesis and Biological Evaluation of 6,7-Disubstituted-4-phenoxyquinoline Derivatives Bearing Pyridazinone Moiety as c-Met Inhibitors” (Molecules : A Journal of Synthetic Chemistry and Natural …, 2018).

Columns and labels:
HepG2 cells = experiment: MTT cytotoxicity assay, HepG2; type: cell-based; conditions: Homo sapiens, 72 h
Protocol: (§1) The results expressed as IC50 values were summarized in Table 1, and the values were the average of at least two independent experiments.
The cancer cell lines were cultured in minimum essential medium (MEM) supplement with 10% fetal bovine serum (FBS). Approximately 4 × 10^3 cells, suspended in MEM medium, were plated onto each well of a 96-well plate and incubated in 5% CO2 at 37 °C for 24 h. The test compounds at indicated final concentrations were added to the culture medium and the cell cultures were continued for 72 h. Fresh MTT was added to each well at a terminal concentration of 5 μg/mL and incubated with cells at 37 °C for 4 h. The formazan crystals were dissolved in 100 μL DMSO each well, and the absorbency at 492 nm (for absorbance of MTT formazan) and 630 nm (for the reference wavelength) was measured with the ELISA reader. All of the compounds were tested two times in each of the cell lines. The results expressed as inhibition rates or IC50 (half-maximal inhibitory concentration) were the averages of two determinations and calculated by using the Bacus Laboratories Incorporated Slide Scanner (Bliss) software (the Bacus Laboratories Inc. Slide Scanner (BLISS) system, Lombard, IL, USA)..

MCF-7 cells = experiment: MTT cytotoxicity assay, MCF-7; type: cell-based; conditions: Homo sapiens, MCF7, 72 h
Protocol: as §1
(§2) The cancer cell lines were cultured in minimum essential medium (MEM) supplement with 10% fetal bovine serum (FBS). […] The test compounds at indicated final concentrations were added to the culture medium and the cell cultures were continued for 72 h. […] All of the compounds were tested two times in each of the cell lines. The results expressed as inhibition rates or IC50 (half-maximal inhibitory concentration) were the averages of two determinations and calculated by using the Bacus Laboratories Incorporated Slide Scanner (Bliss) software (the Bacus Laboratories Inc. Slide Scanner (BLISS) system, Lombard, IL, USA)..

c-Met kinase = c-Met kinase (Homo sapiens, UniProt P08581); experiment: c-Met kinase inhibition assay (HTRF; mobility shift)
Protocol: All kinase assays were performed in 96-well plates in a 50 µL reaction volume. The kinase buffer contains 50 mM HEPES, pH 7.5, 10 mM MgCl2, 0.0015% Brij-35 and 2 mM DTT. The stop buffer contains 100 mM HEPES, pH 7.5, 0.015% Brij-35, 0.2% Coating Reagent 3 and 50 mM EDTA. Dilute the compounds to 500 µM by 100% DMSO, then transfer 10 µL of compound to a new 96-well plate as the intermediate plate, add 90 µL kinase buffer to each well. Transfer 5 µL of each well of the intermediate plate to 384-well plates. The following amounts of enzyme and substrate were used per well: kinase base buffer, FAM-labeled peptide, ATP and enzyme solution. Wells containing the substrate, enzyme, DMSO without compound were used as DMSO control. Wells containing just the substrate without enzyme were used as low control. Incubate at room temperature for 10 min. Add 10 µL peptide solution to each well. […] At last collect data on Caliper program and convert conversion values to inhibition values. Percent inhibition = (max − conversion)/(max − min) × 100. ‘max’ stands for DMSO control; ‘min’ stands for low control [20].

A549 cells = experiment: MTT cytotoxicity assay, A549; type: cell-based; conditions: Homo sapiens, 72 h
Protocol: as §1, §2

c-Met kinase, sequence (P08581 25-1390): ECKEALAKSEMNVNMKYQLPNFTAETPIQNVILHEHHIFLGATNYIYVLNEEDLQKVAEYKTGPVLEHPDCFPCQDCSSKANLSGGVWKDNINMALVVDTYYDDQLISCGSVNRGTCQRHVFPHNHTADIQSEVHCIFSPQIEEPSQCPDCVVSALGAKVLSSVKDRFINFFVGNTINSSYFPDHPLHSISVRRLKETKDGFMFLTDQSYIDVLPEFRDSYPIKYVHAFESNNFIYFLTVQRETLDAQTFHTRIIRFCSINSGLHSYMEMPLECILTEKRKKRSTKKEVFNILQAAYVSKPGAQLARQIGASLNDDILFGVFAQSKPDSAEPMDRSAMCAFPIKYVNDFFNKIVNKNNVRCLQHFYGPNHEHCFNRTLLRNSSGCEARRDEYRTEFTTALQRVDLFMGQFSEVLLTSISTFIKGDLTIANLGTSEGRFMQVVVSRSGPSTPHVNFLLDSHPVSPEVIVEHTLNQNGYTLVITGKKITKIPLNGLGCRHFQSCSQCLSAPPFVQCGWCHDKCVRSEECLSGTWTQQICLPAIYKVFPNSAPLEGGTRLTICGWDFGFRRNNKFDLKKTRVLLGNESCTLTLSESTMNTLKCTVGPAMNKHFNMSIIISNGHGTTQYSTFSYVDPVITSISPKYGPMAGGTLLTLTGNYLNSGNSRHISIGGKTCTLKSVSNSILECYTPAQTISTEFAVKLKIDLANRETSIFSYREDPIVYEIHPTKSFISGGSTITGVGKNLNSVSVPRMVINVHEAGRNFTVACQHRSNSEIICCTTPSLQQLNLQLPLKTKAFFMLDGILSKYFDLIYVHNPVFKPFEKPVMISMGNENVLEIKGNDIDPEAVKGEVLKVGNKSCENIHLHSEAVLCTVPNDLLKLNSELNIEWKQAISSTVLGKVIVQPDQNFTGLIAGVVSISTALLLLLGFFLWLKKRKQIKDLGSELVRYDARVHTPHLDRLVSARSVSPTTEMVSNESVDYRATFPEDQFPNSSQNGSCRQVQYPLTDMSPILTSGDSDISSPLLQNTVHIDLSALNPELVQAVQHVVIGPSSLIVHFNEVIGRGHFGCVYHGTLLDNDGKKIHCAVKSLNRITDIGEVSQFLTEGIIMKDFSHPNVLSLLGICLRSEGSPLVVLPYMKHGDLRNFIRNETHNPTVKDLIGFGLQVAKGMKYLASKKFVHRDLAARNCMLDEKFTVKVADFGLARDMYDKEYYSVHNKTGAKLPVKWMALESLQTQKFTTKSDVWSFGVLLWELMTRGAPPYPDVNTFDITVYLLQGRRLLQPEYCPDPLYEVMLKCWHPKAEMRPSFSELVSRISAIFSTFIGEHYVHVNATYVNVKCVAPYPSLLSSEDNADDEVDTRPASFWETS

Structure (SMILES) | melting point [°C] | IC50 (HepG2 cells) [nM] | IC50 (MCF-7 cells) [nM] | IC50 (c-Met kinase) [nM] | IC50 (A549 cells) [nM]
COc1cc2c(Oc3ccc(NC(=O)c4nn(-c5ccc(Br)cc5)ccc4=O)cc3F)ccnc2cc1OCCCN1CCCCC1 [Compound 32, 1-(4-Bromophenyl)-N-(3-fluoro-4-((6-methoxy-7-(3-(piperidin-1-yl)propoxy)quinolin-4-yl)oxy)phenyl)-4-oxo-1,4-dihydropyridazine-3-carboxamide] | 141.3 to 143.4 | 1750 ± 240 | 2450 ± 390 | 246 | 2890 ± 460
COc1cc2c(Oc3ccc(NC(=O)c4nn(-c5ccc(F)c(Cl)c5)ccc4=O)cc3F)ccnc2cc1OCCCN1CCN(C)CC1 [Compound 50, 1-(3-Chloro-4-fluorophenyl)-N-(3-fluoro-4-((6-methoxy-7-(3-(4-methylpiperazin-1-yl)propoxy)quinolin-4-yl)oxy)phenyl)-4-oxo-1,4-dihydropyridazine-3-carboxamide] | – | 2460 ± 390 | 20 ± 10 | 2 | 20 ± 10
COc1ccc(-n2ccc(=O)c(C(=O)Nc3ccc(Oc4ccnc5cc(OCCCN6CCCCC6)c(OC)cc45)c(F)c3)n2)cc1 [Compound 33, N-(3-Fluoro-4-((6-methoxy-7-(3-(piperidin-1-yl)propoxy)quinolin-4-yl)oxy)phenyl)-1-(4-methoxyphenyl)-4-oxo-1,4-dihydropyridazine-3-carboxamide] | 105.4 to 106.5 | 630 ± 80 | 2350 ± 370 | 56 | 2780 ± 440
COc1cc2c(Oc3ccc(NC(=O)c4nn(-c5ccc(Cl)c(C(F)(F)F)c5)ccc4=O)cc3F)ccnc2cc1OCCCN1CCC(C)CC1 [Compound 44, 1-(4-Chloro-3-(trifluoromethyl)phenyl)-N-(3-fluoro-4-((6-methoxy-7-(3-(4-methylpiperidin-1-yl)propoxy)quinolin-4-yl)oxy)phenyl)-4-oxo-1,4-dihydropyridazine-3-carboxamide] | 137.7 to 138.6 | 650 ± 50 | 5960 ± 70 | 19 | 150 ± 30
COc1cc2c(Oc3ccc(NC(=O)c4nn(-c5ccc(Br)cc5)ccc4=O)cc3F)ccnc2cc1OCCCN1CCC(C)CC1 [Compound 40, 1-(4-Bromophenyl)-N-(3-fluoro-4-((6-methoxy-7-(3-(4-methylpiperidin-1-yl)propoxy)quinolin-4-yl)oxy)phenyl)-4-oxo-1,4-dihydropyridazine-3-carboxamide] | 220.7 to 221.4 | 8840 ± 950 | 9740 ± 990 | 345 | 13500 ± 1130
COc1cc2c(Oc3ccc(NC(=O)c4nn(-c5ccc(Br)cc5)ccc4=O)cc3F)ccnc2cc1OCCCN1CCOCC1 [Compound 24, 1-(4-Bromophenyl)-N-(3-fluoro-4-((6-methoxy-7-(3-morpholinopropoxy)quinolin-4-yl)oxy)phenyl)-4-oxo-1,4-dihydropyridazine-3-carboxamide] | 125.7 to 127.1 | > 50000 | > 50000 | > 500 | > 50000
COc1cc2c(Oc3ccc(NC(=O)c4nn(-c5ccc(Cl)cc5)ccc4=O)cc3F)ccnc2cc1OCCCN1CCN(C)CC1 [Compound 47, 1-(4-Chlorophenyl)-N-(3-fluoro-4-((6-methoxy-7-(3-(4-methylpiperazin-1-yl)propoxy)quinolin-4-yl)oxy)phenyl)-4-oxo-1,4-dihydropyridazine-3-carboxamide] | 163.5 to 165.3 | 14200 ± 1150 | 21100 ± 1320 | 145 | 20000 ± 1300
COc1cc2c(Oc3ccc(NC(=O)c4nn(-c5ccc(F)cc5)ccc4=O)cc3F)ccnc2cc1OCCCN1CCN(C)CC1 [Compound 46, N-(3-Fluoro-4-((6-methoxy-7-(3-(4-methylpiperazin-1-yl)propoxy)quinolin-4-yl)oxy)phenyl)-1-(4-fluorophenyl)-4-oxo-1,4-dihydropyridazine-3-carboxamide] | – | 7510 ± 870 | 1660 ± 220 | 39 | 1640 ± 220
COc1cc2c(Oc3ccc(NC(=O)c4nn(-c5ccc(Cl)c(C(F)(F)F)c5)ccc4=O)cc3F)ccnc2cc1OCCCN1CCOCC1 [Compound 28, 1-(4-Chloro-3-(trifluoromethyl)phenyl)-N-(3-fluoro-4-((6-methoxy-7-(3-morpholinopropoxy)quinolin-4-yl)oxy)phenyl)-4-oxo-1,4-dihydropyridazine-3-carboxamide] | 203.5 to 204.7 | > 50000 | 7490 ± 870 | 382 | 5250 ± 720
COc1cc2c(Oc3ccc(NC(=O)c4nn(-c5ccc(Br)cc5F)ccc4=O)cc3F)ccnc2cc1OCCCN1CCCCC1 [Compound 35, 1-(4-Bromo-2-fluorophenyl)-N-(3-fluoro-4-((6-methoxy-7-(3-(piperidin-1-yl)propoxy)quinolin-4-yl)oxy)phenyl)-4-oxo-1,4-dihydropyridazine-3-carboxamide] | 105.9 to 107.4 | 3100 ± 490 | 1190 ± 80 | 8 | 1360 ± 190
COc1cc2c(Oc3ccc(NC(=O)c4nn(-c5ccc(F)cc5)ccc4=O)cc3F)ccnc2cc1OCCCN1CCC(C)CC1 [Compound 38, N-(3-Fluoro-4-((6-methoxy-7-(3-(4-methylpiperidin-1-yl)propoxy)quinolin-4-yl)oxy)phenyl)-1-(4-fluorophenyl)-4-oxo-1,4-dihydropyridazine-3-carboxamide] | 210.1 to 211.4 | 47200 ± 1670 | 22500 ± 1350 | > 500 | 28900 ± 1460
COc1cc2c(Oc3ccc(NC(=O)c4nn(-c5ccc(Cl)cc5)ccc4=O)cc3F)ccnc2cc1OCCCN1CCC(C)CC1 [Compound 39, 1-(4-Chlorophenyl)-N-(3-fluoro-4-((6-methoxy-7-(3-(4-methylpiperidin-1-yl)propoxy)quinolin-4-yl)oxy)phenyl)-4-oxo-1,4-dihydropyridazine-3-carboxamide] | 220.6 to 222.1 | 7810 ± 890 | 14100 ± 1150 | 169 | 12400 ± 1090
COc1cc2c(Oc3ccc(NC(=O)c4nn(-c5ccc(F)cc5)ccc4=O)cc3F)ccnc2cc1OCCCN1CCOCC1 [Compound 22] | 152.3 to 153.5 | 2230 ± 350 | 210 ± 20 | 47 | 250 ± 10
COc1cc2c(Oc3ccc(NC(=O)c4nn(-c5ccc(Br)cc5)ccc4=O)cc3F)ccnc2cc1OCCCN1CCN(C)CC1 [Compound 48, 1-(4-Bromophenyl)-N-(3-fluoro-4-((6-methoxy-7-(3-(4-methylpiperazin-1-yl)propoxy)quinolin-4-yl)oxy)phenyl)-4-oxo-1,4-dihydropyridazine-3-carboxamide] | 159.7 to 161.2 | > 50000 | > 50000 | > 500 | > 50000
COc1cc2c(Oc3ccc(NC(=O)c4nn(-c5ccc(Cl)cc5)ccc4=O)cc3F)ccnc2cc1OCCCN1CCOCC1 [Compound 23, 1-(4-Chlorophenyl)-N-(3-fluoro-4-((6-methoxy-7-(3-morpholinopropoxy)quinolin-4-yl)oxy)phenyl)-4-oxo-1,4-dihydropyridazine-3-carboxamide] | 138.2 to 139.1 | > 50000 | > 50000 | > 500 | > 50000
COc1ccc(-n2ccc(=O)c(C(=O)Nc3ccc(Oc4ccnc5cc(OCCCN6CCN(C)CC6)c(OC)cc45)c(F)c3)n2)cc1 [Compound 49, 1-(4-((l1-Oxidanyl)-l5-methyl)phenyl)-N-(3-fluoro-4-((6-methoxy-7-(3-(4-methylpiperazin-1-yl)propoxy)quinolin-4-yl)oxy)phenyl)-4-oxo-1,4-dihydropyridazine-3-carboxamide] | 167.5 to 169.1 | 3680 ± 570 | 8120 ± 910 | 78 | 9120 ± 960
COc1cc2c(Oc3ccc(NC(=O)c4nn(-c5ccc(Br)cc5F)ccc4=O)cc3F)ccnc2cc1OCCCN1CCN(C)CC1 [Compound 51, 1-(4-Bromo-2-fluorophenyl)-N-(3-fluoro-4-((6-methoxy-7-(3-(4-methylpiperazin-1-yl)propoxy)quinolin-4-yl)oxy)phenyl)-4-oxo-1,4-dihydropyridazine-3-carboxamide] | – | 6390 ± 810 | 5430 ± 740 | 123 | 5630 ± 750
COc1cc2c(Oc3ccc(NC(=O)C4(C(=O)Nc5ccc(F)cc5)CC4)cc3F)ccnc2cc1OCCCN1CCOCC1 [Foretinib, reference compound] | – | 840 ± 70 | – | – | –
